Data on 16 compounds can be found in ChEMBL document CHEMBL2021784, “Geopyxins A-E, ent-kaurane diterpenoids from endolichenic fungal strains Geopyxis aff. majalis and Geopyxis sp. AZ0066: structure-activity relationships of geopyxins and their analogues” (J Nat Prod, 2012).

The source made the active and inactive calls. The calls are words filed in the database; no cut-off is given here.

What all share (assay type): functional, cell-based
Experiment [1] concerns NCI-H460. Briefly: Cytotoxicity against human NCI-H460 cells after 72 hrs by Alamar blue assay. The conditions noted are these: NCI-H460, 72 h.
For experiment [2], the system named is SF-268. In words: Cytotoxicity against human SF268 cells after 72 hrs by Alamar blue assay. The conditions noted are these: SF-268, 72 h. A general note: Alamar Blue is a resazurin reagent that responds to reducing activity.
Experiment [3] concerns MCF7. In words: Cytotoxicity against human MCF7 cells after 72 hrs by Alamar blue assay. The conditions noted are these: MCF7, 72 h.
A short description of experiment [4]: Cytotoxicity against human PC3M cells after 72 hrs by Alamar blue assay. The conditions noted are these: PC-3M.
Experiment [5] deals with MDA-MB-231. Briefly: Cytotoxicity against human MDA-MB-231 cells after 72 hrs by Alamar blue assay. The conditions noted are these: MDA-MB-231, 72 h.
A further experiment has as its system Fibroblast. Briefly: Induction of heat shock response in mouse fibroblasts expressing GFP at 2.5 uM after overnight incubation by fluorescence assay.
For experiment [6], the system named is NCI-H460. Briefly: Cytotoxicity against human NCI-H460 cells at 5 uM after 72 hrs by Alamar blue assay.
In experiment [7] the test system is SF-268. In words: Cytotoxicity against human SF268 cells at 5 uM after 72 hrs by Alamar blue assay.
Experiment [8] has as its system MCF7. In words: Cytotoxicity against human MCF7 cells at 5 uM after 72 hrs by Alamar blue assay.
Another experiment relates to PC-3M. Briefly: Cytotoxicity against human PC3M cells at 5 uM after 72 hrs by Alamar blue assay.
The subject of experiment [9] is MDA-MB-231. In words: Cytotoxicity against human MDA-MB-231 cells at 5 uM after 72 hrs by Alamar blue assay.

Broadly, the IC50 is the concentration needed to halve the response being measured. A low value points to greater potency in that assay. For `C=C1C(=O)[C@]23C[C@H]1CC[C@H]2[C@]1(C)[C@@H](OC(C)=O)CC[C@@](C)(C(=O)O)[C@H]1C[C@@H]3O`, the IC50 in the experiment on NCI-H460 [1] was 3520 nM; in the experiment on SF-268 [2], 2370 nM; with MCF7 [3], 3480 nM; in [4], 3880 nM; in the experiment with MDA-MB-231 [5], 4110 nM. The outcome in the experiment on Fibroblast was inactive.

For `C=C1C(=O)[C@]23C[C@H]1CC[C@H]2[C@]1(C)CCC[C@@](C)(C(=O)OC)[C@H]1C[C@@H]3O` [METHYLGEOPYXIN B], the IC50 came out at 920 nM in the experiment with NCI-H460 [1]; 690 nM with SF-268 [2]; 630 nM in the experiment on MCF7 [3]; 1480 nM in experiment [4]; 910 nM in the experiment with MDA-MB-231 [5]. In addition, the outcome with Fibroblast was inactive.

For `C=C1C(=O)[C@]23C[C@H]1CC[C@H]2[C@]1(C)[C@@H](O)CC[C@@](C)(C(=O)O)[C@H]1C[C@@H]3O`, the outcome in the experiment on NCI-H460 [6], with SF-268 [7], in the experiment on MCF7 [8], in the experiment with PC-3M and in the experiment with MDA-MB-231 [9] was inactive.

With `C=C1C(=O)[C@]23C[C@H]1CC[C@H]2[C@]1(C)[C@@H](OC(C)=O)CC[C@@](C)(C(=O)OC)[C@H]1C[C@@H]3OC(C)=O`, the IC50 worked out at 1260 nM with NCI-H460 [1]; 1180 nM in the experiment with SF-268 [2]; 1180 nM with MCF7 [3]; 2310 nM in experiment [4]; 1930 nM in the experiment on MDA-MB-231 [5]. For the same compound, the outcome in the experiment on Fibroblast was inactive.

`C=C1C(=O)[C@]23C[C@H]1CC[C@H]2[C@]1(C)[C@@H](OC(C)=O)CC[C@@](C)(C(=O)O)[C@H]1C[C@@H]3OC(C)=O`: the result in the experiment with NCI-H460 [6], in the experiment on SF-268 [7], in the experiment on MCF7 [8], with PC-3M and with MDA-MB-231 [9] was inactive.

`C=C1C(=O)[C@]23C[C@H]1C[C@H](O)[C@H]2[C@]1(C)CCC[C@@](C)(C(=O)O)[C@H]1C[C@@H]3O`: the result in the experiment with NCI-H460 [6], in the experiment on SF-268 [7], in the experiment with MCF7 [8], in the experiment with PC-3M and in the experiment with MDA-MB-231 [9] was inactive.

For the compound `COc1cccc2c1C(=O)c1c(O)c3c(c(O)c1C2=O)C[C@@](O)(C(=O)CO)C[C@@H]3O[C@H]1C[C@H](N)[C@H](O)[C@H](C)O1` [DOXORUBICIN], the IC50 in the experiment on NCI-H460 [1] was 420 nM; with SF-268 [2] it was 620 nM; in the experiment on MCF7 [3] it was 420 nM; in [4], 240 nM; in the experiment on MDA-MB-231 [5], 580 nM.

As to `C=C1C(=O)[C@]23C[C@H]1CC[C@H]2[C@]1(C)[C@@H](O)[C@@H](O)C[C@@](C)(C(=O)OC)[C@H]1C[C@@H]3O` [METHYLGEOPYXIN E], the IC50 in the experiment with NCI-H460 [1] was 2270 nM; with SF-268 [2] it was 1020 nM; in the experiment on MCF7 [3], 2080 nM; in experiment [4], 3990 nM; with MDA-MB-231 [5] it was 3810 nM. Further, the result in the experiment on Fibroblast was inactive.

For `C=C1C(=O)[C@]23C[C@H]1CC[C@H]2[C@]1(C)C(=O)CC[C@@](C)(C(=O)OC)[C@H]1C[C@@H]3O` [METHYLGEOPYXIN C], the IC50 with NCI-H460 [1] was determined as 2280 nM; with SF-268 [2], 1560 nM; in the experiment with MCF7 [3], 1670 nM; in experiment [4] it was 3630 nM; with MDA-MB-231 [5], 3380 nM. Moreover, the outcome in the experiment on Fibroblast was inactive.

For the compound `C=C1C(=O)[C@]23C[C@H]1CC[C@H]2[C@]1(C)[C@@H](O)CC[C@@](C)(C(=O)OC)[C@H]1C[C@@H]3O` [METHYLGEOPYXIN A], the IC50 in the experiment with NCI-H460 [1] is 1080 nM; in the experiment on SF-268 [2], 720 nM; in the experiment on MCF7 [3], 790 nM; in experiment [4], 2270 nM; with MDA-MB-231 [5], 730 nM. Further, the result in the experiment with Fibroblast was inactive.

As for `COC(=O)[C@]1(C)CC[C@H](O)[C@@]2(C)[C@@H]3CC[C@@H]4C[C@]3(C(=O)[C@@H]4CO)[C@@H](O)C[C@@H]21`, the result with NCI-H460 [6], in the experiment with SF-268 [7], with MCF7 [8], in the experiment on PC-3M and with MDA-MB-231 [9] was inactive.

As to `C=C1C(=O)[C@]23C[C@H]1CC[C@H]2[C@]1(C)C(=O)CC[C@@](C)(C(=O)O)[C@H]1C[C@@H]3O`, the outcome in the experiment on NCI-H460 [6], in the experiment on SF-268 [7], with MCF7 [8], with PC-3M and with MDA-MB-231 [9] was inactive.

Regarding `C=C1C(=O)[C@]23C[C@H]1CC[C@H]2[C@]1(C)[C@@H](O)[C@@H](O)C[C@@](C)(C(=O)O)[C@H]1C[C@@H]3O`, the result in the experiment on NCI-H460 [6], with SF-268 [7], with MCF7 [8], in the experiment with PC-3M and with MDA-MB-231 [9] was inactive.

For the compound `C=C1C(=O)[C@]23C[C@H]1CC[C@H]2[C@]1(C)[C@@H](OC(C)=O)CC[C@@](C)(C(=O)OC)[C@H]1C[C@@H]3O`, the IC50 in the experiment with NCI-H460 [1] was determined as 820 nM; in the experiment on SF-268 [2], 660 nM; in the experiment on MCF7 [3], 530 nM; in experiment [4], 1540 nM; with MDA-MB-231 [5], 1150 nM. In addition, the result with Fibroblast was Active.

As for `C=C1C(=O)[C@]23C[C@H]1CC[C@H]2[C@]1(C)CCC[C@@](C)(C(=O)O)[C@H]1C[C@@H]3O` [GEOPYXIN B], the IC50 in the experiment on NCI-H460 [1] came to 2250 nM; in the experiment on SF-268 [2] it was 2350 nM; in the experiment with MCF7 [3] it was 4320 nM; in [4], 5410 nM; in the experiment on MDA-MB-231 [5] it was 3310 nM. For the same compound, the result in the experiment with Fibroblast was Active.

Consider `C[C@]12[C@@H]3CC[C@@H]4C[C@]3(C(=O)[C@@H]4CO)[C@@H](O)C[C@@H]1[C@](C)(C(=O)O)CC[C@@H]2O`, for which the result with NCI-H460 [6], in the experiment with SF-268 [7], with MCF7 [8], in the experiment on PC-3M and in the experiment on MDA-MB-231 [9] was inactive.
